Laboratory results published in the NIST ThermoML archive (doi:10.1021/je800635g).
Numbers after ± are expanded uncertainties.

Settings: Liquid, Falling or rolling sphere viscometry

CCCCCCCCCC [decane]
Settings	viscosity [mPa·s]
313.15 K, 100 kPa	0.7051 ± 0.0075
323.15 K, 100 kPa	0.6356 ± 0.0068
333.15 K, 100 kPa	0.5646 ± 0.0061
333.15 K, 800 kPa	0.5732 ± 0.0061
333.15 K, 1600 kPa	0.5714 ± 0.0061
333.15 K, 2400 kPa	0.5756 ± 0.0061
333.15 K, 3200 kPa	0.5792 ± 0.0061
343.15 K, 100 kPa	0.5069 ± 0.0054
353.15 K, 100 kPa	0.4514 ± 0.0048
363.15 K, 100 kPa	0.4136 ± 0.0044
373.15 K, 100 kPa	0.3729 ± 0.004
373.15 K, 800 kPa	0.3773 ± 0.0041
373.15 K, 1600 kPa	0.3818 ± 0.0041
373.15 K, 2400 kPa	0.3851 ± 0.0042
373.15 K, 3200 kPa	0.3906 ± 0.0042
393.15 K, 1600 kPa	0.3216 ± 0.0035
413.15 K, 1600 kPa	0.279 ± 0.003
433.15 K, 1600 kPa	0.2328 ± 0.0025
453.15 K, 1600 kPa	0.2072 ± 0.0023
473.15 K, 1600 kPa	0.174 ± 0.0019

CC(=O)O [acetic acid]
viscosity [mPa·s]
Settings	313.15 K	333.15 K	353.15 K	373.15 K	393.15 K	413.15 K	433.15 K	453.15 K	473.15 K
100 kPa	0.903 ± 0.01	0.713 ± 0.008	0.574 ± 0.006	0.471 ± 0.005	–	–	–	–	–
800 kPa	0.91 ± 0.01	0.72 ± 0.008	0.582 ± 0.006	0.478 ± 0.005	0.394 ± 0.004	0.333 ± 0.004	0.281 ± 0.003	0.244 ± 0.003	–
1600 kPa	0.917 ± 0.01	0.727 ± 0.008	0.59 ± 0.006	0.486 ± 0.005	0.402 ± 0.004	0.34 ± 0.004	0.287 ± 0.003	0.251 ± 0.003	0.213 ± 0.002
2400 kPa	0.924 ± 0.01	0.735 ± 0.008	0.598 ± 0.006	0.494 ± 0.005	0.41 ± 0.004	0.347 ± 0.004	0.294 ± 0.003	0.258 ± 0.003	0.22 ± 0.002
3200 kPa	0.932 ± 0.01	0.743 ± 0.008	0.605 ± 0.006	0.502 ± 0.005	0.418 ± 0.005	0.354 ± 0.004	0.302 ± 0.003	0.264 ± 0.003	0.226 ± 0.003

Cc1ccccc1 [toluene]
Settings	viscosity [mPa·s]
313.15 K, 100 kPa	0.4651 ± 0.0049
323.15 K, 100 kPa	0.4158 ± 0.0044
333.15 K, 100 kPa	0.3758 ± 0.0039
333.15 K, 800 kPa	0.3839 ± 0.004
333.15 K, 1600 kPa	0.3889 ± 0.004
333.15 K, 2400 kPa	0.3955 ± 0.0041
333.15 K, 3200 kPa	0.4008 ± 0.0042
343.15 K, 100 kPa	0.3428 ± 0.0036
353.15 K, 100 kPa	0.3137 ± 0.0033
363.15 K, 100 kPa	0.2901 ± 0.003
373.15 K, 100 kPa	0.268 ± 0.0028
373.15 K, 800 kPa	0.2706 ± 0.0029
373.15 K, 1600 kPa	0.2742 ± 0.0029
373.15 K, 2400 kPa	0.278 ± 0.0029
373.15 K, 3200 kPa	0.2822 ± 0.003
393.15 K, 1600 kPa	0.2397 ± 0.0025
413.15 K, 1600 kPa	0.2058 ± 0.0022
433.15 K, 1600 kPa	0.1769 ± 0.0019
453.15 K, 1600 kPa	0.1517 ± 0.0016
473.15 K, 1600 kPa	0.1353 ± 0.0015

Cc1ccc(C)cc1 [1,4-dimethylbenzene]
viscosity [mPa·s]
Settings	313.15 K	333.15 K	353.15 K	373.15 K	393.15 K	413.15 K	433.15 K	453.15 K	473.15 K
100 kPa	0.499 ± 0.005	0.409 ± 0.004	0.34 ± 0.004	0.292 ± 0.003	–	–	–	–	–
800 kPa	0.5029 ± 0.0052	0.412 ± 0.004	0.346 ± 0.004	0.297 ± 0.003	0.254 ± 0.003	0.221 ± 0.002	0.192 ± 0.002	0.168 ± 0.002	–
1600 kPa	0.51 ± 0.005	0.414 ± 0.004	0.35 ± 0.004	0.3 ± 0.003	0.258 ± 0.003	0.223 ± 0.002	0.197 ± 0.002	0.17 ± 0.002	0.159 ± 0.002
2400 kPa	0.516 ± 0.005	0.417 ± 0.004	0.356 ± 0.004	0.303 ± 0.003	0.262 ± 0.003	0.226 ± 0.002	0.201 ± 0.002	0.172 ± 0.002	0.163 ± 0.002
3200 kPa	0.521 ± 0.005	0.419 ± 0.004	0.361 ± 0.004	0.305 ± 0.003	0.266 ± 0.003	0.228 ± 0.002	0.206 ± 0.002	0.175 ± 0.002	0.167 ± 0.002
